Measurements published in publication PMC10675445, “Enolase Inhibitors as Early Lead Therapeutics against Trypanosoma brucei” (Pathogens, 2023).
Where two headings read alike, the source gives them in different places.

How the values were obtained:
BSF parasites [1] = assay: Trypanosome ROS assay (flow cytometry); assay type: cell-based, Trypanosoma brucei; settings: 30 min, POMHEX 50 or 100 µM, H2O2 125 µM
Method: BSF parasites (5 × 10^6 cells) were pelleted (800 × g, 10 min) then resuspended in PBS supplemented with 0.1% glucose (PBSg). Samples were treated with either ROS stain (Total Reactive Oxygen Species (ROS) Assay Kit 520 nm, Invitrogen) or DMSO and then incubated at 37 °C in 5% CO2 for 60 min. Samples were then treated with 125 μM H2O2, 50 μM POMHEX, 100 μM POMHEX, or equal volume DMSO, incubated for 30 min, and analyzed on a CytoFLEX flow cytometer (Beckman Coulter). Events (10,000) were recorded and analyzed using FCSexpress software. Median fluorescence intensity (MFI) was calculated, and Welch’s t-tests were performed (ns: not statistically significant, * p < 0.05, ** p < 0.01, *** p < 0.001). Each experiment was performed with biological triplicates in technical triplicates.

T. brucei ENO (TbENO) = T. brucei ENO (TbENO) (Trypanosoma brucei brucei, UniProt Q38BV6); assay: Recombinant TbENO coupled enzyme assay; assay type: biochemical
Method: Recombinant ENO and ENO Assays—Recombinant TbENO was expressed and purified using an approach modified from the purification of another trypanosome glycolytic enzyme. Briefly, the full-length open reading frame was cloned from Trypanosoma brucei brucei (a 427 strain) genomic DNA into the bacterial expression vector pQE-30 (Qiagen, MD, USA). This plasmid was transformed into M15pREP cells and protein expression induced with 0.25 mM isopropyl-b-d-1-thiogalactopyranoside (IPTG) overnight at 37 °C. Protein was purified on Ni-NTA agarose (Qiagen) as described.
ENO assays were performed in triplicate using a coupled reaction to measure enzyme activity. In short, enzyme (~50 nM) in assay buffer (100 mM HEPES, pH 8.0, 3.3 mM MgSO4, 120 mM KCl, 1.75 mM ADP, 1 U of pyruvate kinase/lactate dehydrogenase, and 0.4 mM NADH) was added to black 96-well plates. Reactions were initiated by the addition of substrate (3.75 mM 2-PG) and the rate of reduction in fluorescence emission at A460 was measured after excitation at A360 to monitor NAD^+ production. Assays were scored on a Biotek Synergy H1 microplate reader and kinetic analyses were performed with Prism 9.0 (GraphPad Software, San Diego, CA, USA) using the Michaelis–Menten model. To assess the impact of different pH on enzyme activity, the HEPES […] in the standard buffer was replaced with Good’s buffers 2-morpholinoethanesulfonic acid (MES, pH 6.5), HEPES (pH 7.0 to pH 8.5), or sodium borate (pH 9.0). For assays involving inhibitors, compounds (in DMSO) were incubated with the enzyme in assay buffer (pH 8.0) for 15 min prior to initiation of the reaction. All assays were performed in triplicate with vehicle control (DMSO) included.

T. brucei BSF parasites = assay: BSF viability assay (CellTiter Blue); assay type: cell-based, Trypanosoma brucei brucei
Method: (§1) Trypanosome growth, viability assays, and Western blotting—T. brucei brucei 90-13 BSF parasites were cultured in HMI-9 medium supplemented with 10% heat-inactivated FBS and 10% Serum Plus (Sigma-Aldrich, St. Louis, MO, USA) at 37 °C in 5% CO2, while T. brucei brucei PF 29-13 were cultured in SDM-79 supplemented with 10% heat-inactivated FBS [16]. For BSF viability assays, parasites (1 × 10^5/mL) were seeded into 384-well black polystyrene plates in the presence of a compound or equivalently diluted carrier. CellTiter Blue reagent (Promega, Madison, WI, USA) was added after two days of culture, the plates incubated an additional 1 h, and fluorescence emission at A585 measured after excitation at A546. For PF viability assays, 1 × 10^6 parasites in standard medium, or 5 × 10^6 parasites in glucose-free medium, were introduced into black 96-well plates in standard culture medium in the presence of a compound or carrier, with CellTiter Blue reagent added after 48 h of culture. Plates were incubated for 1 h and fluorescence emission scored as described for BSF. Fluorescence values were used to calculate percent cell growth inhibition (based on controls) for each concentration of compound tested. Averages of the triplicates were calculated and fit to dose-response curves for the determination of EC50 values, using Prism 9.0 (GraphPad Software, San Diego, CA, USA).

HsENO2 = tested on: HsENO2; design: method as in PMID 33230295; settings: cited from earlier work; for IC50: included for comparative purposes, source not given
T. brucei PF parasites = assay: PF viability assay (CellTiter Blue); assay type: cell-based; settings: Trypanosoma brucei, 48 h
Method: as §1

BSF parasites [2] = assay: Propidium iodide exclusion viability (flow cytometry); assay type: cell-based, Trypanosoma brucei; settings: 30 min
Method: To monitor apoptotic-like responses, 5 × 10^6 parasites were collected, resuspended in fresh media containing 125 μM H2O2, 5 μM POMHEX, 50 μM POMHEX, 100 μM POMHEX, or equal volume of DMSO, and incubated at 37 °C in 5% CO2 for 30 min. Cells were washed once in PBS, resuspended in binding buffer (10 mM HEPES/NaOH, pH 7.4, 140 mM NaCl, 2.5 mM CaCl2) with propidium iodide (Enzo Life Sciences) and incubated for 15 min, followed by cytometry. Each experiment was performed with technical triplicates of biological triplicates. Median fluorescence intensity (MFI) was calculated, and Welch’s t-tests were performed (ns: not statistically significant, * p < 0.05, ** p < 0.01, *** p < 0.001).

T. brucei aldolase = assay: Aldolase western blot of BSF lysates; assay type: cell-based, Trypanosoma brucei; settings: POMHEX 6 µM, 2.5 h
Description: (§2) The following supporting information can be downloaded at: https://www.mdpi.com/article/10.3390/pathogens12111290/s1, Figure S1: Multiple sequence alignment of TbENO, HsENO2, and NfENO. Amino acid sequences of TbENO (Tb927.10.2890), HsENO2 (ENOG, P09104), and NfENO (NfTY_054390) were aligned using Clustal Omega (EMBL-EBI). Similar amino acids are indicated with (:) and absolute conservation of residues by (*). Figure S2: BSF morphology rapidly changes upon POMHEX treatment. For imaging, BSF (427 strain parasites) parasites bearing the transgene pXS6 AldoPTSeYFP (left) or PF pXS2 AldoPTSeYFP (PF 29-13) (right) for constitutive glycosomal expression of eYFP were cultured for 2.5 hr in DMSO vehicle or POMHEX (at 6 µM, a concentration equivalent to 10-fold the EC50 value). Cells were then washed, fixed (4% paraformaldehyde), and imaged on a on Leica 8 DMi8 microscope. Scale bar = 10 µm. Figure S3: The levels of the glycosome-resident protein aldolase change in response to POMHEX treatment. […] Western blots were visualized on a Analytik Jena UVP ChemStudio imager with Visual works imaging software and bands were quantitated using ImageJ. Percent change in aldolase amount was scored after normalization to loading by quantification of a prominent Coomassie-stained band (likely VSG). […] Cell viability was scored by propidium iodide exclusion, followed by analysis of 10,000 cells in the PC5.5 channel.

[3] = tested on: BSF parasites (BSF pXS6-eYFP-PTS1); assay: Imaging of BSF cell morphology; assay type: cell-based, Trypanosoma brucei; settings: 6 µM, 2.5 h
Description: as §2

PF parasites (PF 29-13) = assay: Imaging of PF cellular and glycosomal morphology; assay type: cell-based, Trypanosoma brucei; settings: 6 µM, 2.5 h
Description: as §2

ENO1-deficient tumors = tested on: ENO1-deficient tumors; design: method as in PMID 33230295; settings: rodent model; cited from earlier work
[4] = design: method as in PMID 33230295; settings: mammalian animal models, including non-human primates; cited from earlier work
[5] = Trypanosoma brucei, 48 h, read-out: T. brucei BSF EC50, BSF, two days of culture
[6] = recombinant TbENO ~50 nM, pH 8.0, 15 min preincubation, 3.75 mM 2-PG, read-out: TbENO IC50
[7] = Trypanosoma brucei, 48 h, BSF, two days of culture, read-out: T. brucei BSF EC50

Sequence of T. brucei ENO (TbENO) (Q38BV6 entry or part of it): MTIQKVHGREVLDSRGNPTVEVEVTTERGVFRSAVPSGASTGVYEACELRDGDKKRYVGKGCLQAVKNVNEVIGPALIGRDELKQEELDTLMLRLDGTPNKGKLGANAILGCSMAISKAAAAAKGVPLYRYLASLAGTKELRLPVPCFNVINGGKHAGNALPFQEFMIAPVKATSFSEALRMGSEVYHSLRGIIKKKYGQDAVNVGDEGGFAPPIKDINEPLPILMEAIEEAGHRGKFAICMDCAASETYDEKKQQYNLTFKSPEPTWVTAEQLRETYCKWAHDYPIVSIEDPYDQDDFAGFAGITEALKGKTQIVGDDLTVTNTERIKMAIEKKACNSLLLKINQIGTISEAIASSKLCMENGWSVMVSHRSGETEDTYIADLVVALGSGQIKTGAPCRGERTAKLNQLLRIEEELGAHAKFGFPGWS

| SMILES | IC50 (T. brucei ENO (TbENO)) [µM] | EC50 (T. brucei BSF parasites; [5]) [µM] | IC50 (HsENO2) [µM] | IC50 (T. brucei ENO (TbENO); [6]) [µM] | EC50 (T. brucei BSF parasites; [7]) [µM] | also measured |
| --- | --- | --- | --- | --- | --- | --- |
| OO [hydrogen peroxide, reference compound] | – | – | – | – | – | ROS levels compared to untreated parasites (BSF parasites [1]): increase in reactive species |
| O=C1C(P(=O)(O)O)CCCCN1O (stereo not drawn) [HEPTA, (1-hydroxy-2-oxoazepan-3-yl) phosphonic acid] | > 10 | > 10 | 5.8 ± 0.88 | – | – | activity against TbENO (in words) (T. brucei ENO (TbENO)): not active |
| O=C1C(P(=O)(O)O)CCCN1OCc1ccccc1 (stereo not drawn) [BenzylHEX] | – | – | > 10 | > 10 | > 10 | activity against ENO2 (in words) (HsENO2): not active |
| CC(C)(C)C(=O)OCOP(=O)(OCOC(=O)C(C)(C)C)C1CCCN(O)C1=O (stereo not drawn) [POMHEX] | – | – | > 10 | 2.8 ± 0.64 | 0.61 ± 0.08 | EC50 (T. brucei PF parasites; PF parasites cultured in glucose-free medium, read-out: PF EC50, glucose-free medium): 5 ± 0.14 µM; EC50 (T. brucei PF parasites; PF parasites cultured in standard (5 mM) glucose, read-out: PF EC50, standard glucose): 0.81 ± 0.07 µM; ROS levels compared to untreated parasites (BSF parasites [1]): significant reduction in ROS levels; cell death by PI exclusion, 50 µM (BSF parasites [2]; 50 µM): did not lead to increased cell death; cell death by PI exclusion, higher concentration (BSF parasites [2]; 100 µM): increased cell death; decrease of aldolase levels vs vehicle-treated cells (T. brucei aldolase): 28%; range of aldolase reduction in three other replicates (T. brucei aldolase): 28-55%; BSF cell morphology [3]: rapid change to overall cell shape; PF cellular and glycosomal morphology (PF parasites (PF 29-13)): remained largely unchanged |
| CC(C)(C)C(=O)OCOP(=O)(OCOC(=O)C(C)(C)C)C1CC(O)N(O)C1=O (stereo not drawn) [POMSF] | – | – | – | – | – | EC50 (T. brucei BSF parasites; BSF, two days of culture, read-out: T. brucei BSF EC50): 0.45 ± 0.1 µM |
| O=C1C(P(=O)(O)O)CCCCN1OCc1ccccc1 (stereo not drawn) [Benzyl-HEPTA] | – | – | > 10 | > 10 | > 10 | – |
| O=C1C(P(=O)(O)O)CCN1OCc1ccccc1 (stereo not drawn) [Benzyl-deoxy-SF2312] | – | – | > 10 | > 10 | > 10 | activity against TbENO at 10 µM (T. brucei ENO (TbENO); at 10 µM): not active |
| O=C1C(P(=O)(O)O)CCCN1O (stereo not drawn) [HEX, (1-hydroxy-2-oxopiperidin-3-yl) phosphonic acid] | 2.1 ± 1.1 | 10 ± 1 | 0.36 ± 0.04 | – | – | EC50 (T. brucei BSF parasites; Trypanosoma brucei, read-out: T. brucei BSF EC50, HEX with formaldehyde, with 2 molar equivalent formaldehyde): 10 ± 1.4 µM; EC50 (T. brucei BSF parasites; read-out: T. brucei BSF EC50, BSF, two days of culture): > 10 µM; efficacy against ENO1-deficient tumors (ENO1-deficient tumors): curative; tolerability [4]: extremely well-tolerated |
| O=C1C(P(=O)(O)O)CCN1O (stereo not drawn) [Deoxy-SF2312, (1-hydroxy-2-oxopyrrolidin-3-yl) phosphonic acid] | 0.6 ± 0.23 | > 10 | 0.1 ± 0.04 | – | – | – |
